Test results as given in patent publication US20120029187A1, “HALOALKYLSULFONANILIDE DERIVATIVE” (Nissan Chemical Industries, Ltd., priority 2009, published 2012).

What was measured:
Assay type in all cases: in vivo
transplanted rice = assay: Test Example 1: preemergence treatment under submerged conditions, effect on crop; details: dose 2.52 g/a
How it was run: (§1)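 Scoring 0 (<5% mortality) to 5 (≥90%) was done three weeks after preemergence application to the water surface of submerged (4 cm) alluvial soil, doses given as g per are. Weeds were seeded and 2.5-leaf rice transplanted on the treatment day; greenhouse at 25–30 °C.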

bulrush [1] = assay: Test Example 2: herbicidal effects during the vegetation period under submerged conditions; details: treatment during the vegetation period under submerged conditions; dose 2.52 g/a
How it was run: (§2)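 Barnyardgrass, bulrush and ducksalad were co-sown in alluvial soil flooded to 4 cm and grown in a greenhouse at 25 to 30° C. At the 1- or 2-leaf stage, water-diluted emulsifiable concentrates went onto the water surface at set doses (g/a). Herbicidal effect was scored three weeks later on a graded scale.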

barnyardgrass [2] = assay: as above; details: treatment during the vegetation period under submerged conditions; dose 2.52 g/a
How it was run: as §2

ducksalad [3] = assay: as above; details: treatment during the vegetation period under submerged conditions; dose 2.52 g/a
How it was run: as §2

common ragweed [4] = assay: Test Example 4: herbicidal effect in foliage treatment; details: dose 3.2 g/a, three weeks after application
How it was run: (§3)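 Visual herbicidal scores on a graded scale were recorded three weeks after foliar application. Compounds went on as diluted emulsifiable concentrates at predetermined g/a to plants grown 14 days in a 25 to 30° C greenhouse.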

redroot pigweed [5] = assay: as above; details: dose 3.2 g/a, three weeks after application
How it was run: as §3

water foxtail [6] = assay: as above; details: dose 3.2 g/a, three weeks after application
How it was run: as §3

posumbu knotweed [7] = assay: as above; details: dose 3.2 g/a, three weeks after application
How it was run: as §3

Italian ryegrass [8] = assay: as above; details: dose 3.2 g/a, three weeks after application
How it was run: as §3

barnyardgrass [9] = assay: as above; details: dose 3.2 g/a, three weeks after application
How it was run: as §3

beadstraw = assay: as above; details: dose 3.2 g/a, three weeks after application
How it was run: as §3

velvetleaf [10] = assay: as above; details: dose 3.2 g/a, three weeks after application
How it was run: as §3

common chickweed [11] = assay: as above; details: dose 3.2 g/a, three weeks after application
How it was run: as §3

common lambsquater [12] = assay: as above; details: dose 3.2 g/a, three weeks after application
How it was run: as §3

giant foxtail [13] = assay: as above; details: dose 3.2 g/a, three weeks after application
How it was run: as §3

large crabgrass [14] = assay: as above; details: dose 3.2 g/a, three weeks after application
How it was run: as §3

common ragweed [15] = assay: Test Example 3: herbicidal effects in soil treatment; details: dose 3.2 g/a
How it was run: (§4)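 Seeds were sown in sterilized diluvial soil and covered with about 1.5 cm of soil. Compounds, formulated as emulsifiable concentrates and diluted with water, were sprayed evenly over the soil surface at set doses in g/a. Herbicidal effect was scored on a rating scale three weeks later.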

redroot pigweed [16] = assay: as above; details: dose 3.2 g/a
How it was run: as §4

water foxtail [17] = assay: as above; details: dose 3.2 g/a
How it was run: as §4

posumbu knotweed [18] = assay: as above; details: dose 3.2 g/a
How it was run: as §4

Italian ryegrass [19] = assay: as above; details: dose 3.2 g/a
How it was run: as §4

barnyardgrass [20] = assay: as above; details: dose 3.2 g/a
How it was run: as §4

velvetleaf [21] = assay: as above; details: dose 3.2 g/a
How it was run: as §4

common chickweed [22] = assay: as above; details: dose 3.2 g/a
How it was run: as §4

common lambsquater [23] = assay: as above; details: dose 3.2 g/a
How it was run: as §4

giant foxtail [24] = assay: as above; details: dose 3.2 g/a
How it was run: as §4

large crabgrass [25] = assay: as above; details: dose 3.2 g/a
How it was run: as §4

bulrush [26] = assay: Test Example 1: herbicidal effects in preemergence treatment under submerged conditions; details: dose 2.52 g/a
How it was run: as §1

barnyardgrass [27] = assay: as above; details: dose 2.52 g/a
How it was run: as §1

ducksalad [28] = assay: as above; details: dose 2.52 g/a
How it was run: as §1

For `CCOC(=O)N(c1ccccc1CN1COC(C)(COC)CC1=O)S(=O)(=O)C(F)(F)F` (stereo not drawn) [II-55], the “a: transplanted rice, effect on crop (evaluation scale 0-5)” value (transplanted rice) was 0 (mortality of less than 5% (almost ineffective)), the “B: bulrush, herbicidal effect (evaluation scale 0-5)” value (bulrush [1]) was 5 (mortality of 90% or above (nearly complete death)) and the “A: barnyardgrass, herbicidal effect (evaluation scale 0-5)” value (barnyardgrass [2]) was 5 (mortality of 90% or above (nearly complete death)). For the same molecule, the “C: ducksalad, herbicidal effect (evaluation scale 0-5)” value (ducksalad [3]) was 5 (mortality of 90% or above (nearly complete death)), the “J: common ragweed, herbicidal effect” value (common ragweed [4]) was 4 (mortality of at least 70% and less than 90%) and the “K: redroot pigweed, herbicidal effect” value (redroot pigweed [5]) was 0 (mortality of less than 5% (almost ineffective)). The “G: water foxtail, herbicidal effect” value (water foxtail [6]) was 5 (mortality of 90% or above (nearly complete death)), the “M: posumbu knotweed, herbicidal effect” value (posumbu knotweed [7]) was 3 (mortality of at least 40% and less than 70%) and the “H: Italian ryegrass, herbicidal effect” value (Italian ryegrass [8]) was 5 (mortality of 90% or above (nearly complete death)). The “A: barnyardgrass, herbicidal effect” value (barnyardgrass [9]) was 5 (mortality of 90% or above (nearly complete death)), the “O: beadstraw, herbicidal effect” value (beadstraw) was 4 (mortality of at least 70% and less than 90%) and the “I: velvetleaf, herbicidal effect” value (velvetleaf [10]) was 5 (mortality of 90% or above (nearly complete death)). For the same molecule, the “N: common chickweed, herbicidal effect” value (common chickweed [11]) was 4 (mortality of at least 70% and less than 90%), the “L: common lambsquater, herbicidal effect” value (common lambsquater [12]) was 4 (mortality of at least 70% and less than 90%) and the “E: giant foxtail, herbicidal effect” value (giant foxtail [13]) was 5 (mortality of 90% or above (nearly complete death)). The “D: large crabgrass, herbicidal effect” value (large crabgrass [14]) was 4 (mortality of at least 70% and less than 90%), the “J: common ragweed, herbicidal effect (evaluation scale 0-5)” value (common ragweed [15]) was 5 (mortality of 90% or above (nearly complete death)) and the “K: redroot pigweed, herbicidal effect (evaluation scale 0-5)” value (redroot pigweed [16]) was 3 (mortality of at least 40% and less than 70%). The “G: water foxtail, herbicidal effect (evaluation scale 0-5)” value (water foxtail [17]) was 5 (mortality of 90% or above (nearly complete death)), the “M: posumbu knotweed, herbicidal effect (evaluation scale 0-5)” value (posumbu knotweed [18]) was 5 (mortality of 90% or above (nearly complete death)) and the “H: Italian ryegrass, herbicidal effect (evaluation scale 0-5)” value (Italian ryegrass [19]) was 5 (mortality of 90% or above (nearly complete death)). The “A: barnyardgrass, herbicidal effect (evaluation scale 0-5)” value (barnyardgrass [20]) was 5 (mortality of 90% or above (nearly complete death)), the “I: velvetleaf, herbicidal effect (evaluation scale 0-5)” value (velvetleaf [21]) was 5 (mortality of 90% or above (nearly complete death)) and the “N: common chickweed, herbicidal effect (evaluation scale 0-5)” value (common chickweed [22]) was 5 (mortality of 90% or above (nearly complete death)). For the same molecule, the “L: common lambsquater, herbicidal effect (evaluation scale 0-5)” value (common lambsquater [23]) was 4 (mortality of at least 70% and less than 90%), the “E: giant foxtail, herbicidal effect (evaluation scale 0-5)” value (giant foxtail [24]) was 5 (mortality of 90% or above (nearly complete death)) and the “D: large crabgrass, herbicidal effect (evaluation scale 0-5)” value (large crabgrass [25]) was 5 (mortality of 90% or above (nearly complete death)). The “B: bulrush, herbicidal effect (evaluation scale 0-5)” value (bulrush [26]) was 5 (mortality of 90% or above (nearly complete death)), the “A: barnyardgrass, herbicidal effect (evaluation scale 0-5)” value (barnyardgrass [27]) was 5 (mortality of 90% or above (nearly complete death)) and the “C: ducksalad, herbicidal effect (evaluation scale 0-5)” value (ducksalad [28]) was 5 (mortality of 90% or above (nearly complete death)).
